Test system: Cu-induced LDL oxidation in human serum
Assay: Cu-induced LDL oxidation in human serum ex vivo (fluorescence)
Conditions: after 2 hrs of serum exposure to copper ions
Procedure: Total amounts of cholesterol, HDL, LDL, triglycerides were measured using Cholestech System. SPG in powder form was provided by VDF FutureCeuticals, Inc. and dissolved in water at various ad indicated concentrations. Copper chloride was from Sigma. Black transparent-bottom 96-well plates were from Nalgene Nunc International. Oxidation of LDL was measured using fluorescence methods as described elsewhere (supra). Cu-induced LDL oxidation was performed in PBS (100 ul/well) with 4 ul of human sera, 2 ul of copper chloride (concentration 4 mM) and 0.5 ul of H2O2 (concentration 88.2 nM) resulting in 8-uM concentration of copper ions and 44 μM of hydrogen peroxide, respectively. Formation of Cu-induced oxLDL was measured directly in human serum using a 96-well plate set up and Gemini Fluorescent plate reader (Molecular Devices). The fluorescence signal at 360/430 and 360/470 was measured at time 0, 2 and 16 hours. oxLDL fluorescence values compared to concentration 0 on each graph show how much fluorescent signal for oxidized LDL increased between time 0 and 2 or 16 hrs, respectively, while the value at concentration 0 represents the max increase of oxLDL generation under the experimental conditions.

- IC50 of Cu-induced LDL oxidation in serum: 69 µg/mL
SMILES: O=C1O[C@H]([C@@H](O)CO)C(O)=C1O [ascorbic acid]

From patent US8124135B2, “Compositions and methods for reduction of LDL oxidation” (VDF FutureCeuticals, Inc., priority 2005, dated 2012)
